In assay [1] the test system is Akt phosphorylation. The assay can be described thus: Akt Phosphorylation Assay (western blot), Panc-1. It is filed as cell-based, human. The note with it: at 10 μM, * = activation. Put shortly:
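Phospho-Akt (Ser473) was measured by western blot in lysates of KRas G12D Panc-1 cells exposed to test compound for 6 h at 37 °C, either at 10 μM final with 0.3% DMSO or as serial dilutions for IC50. One format used overnight 0.5% FBS starvation followed by a 15 min pulse of 1.5 ng/ml EGF. The other used cells in 10% FBS with no stimulation.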

The target of assay [2] is T1, Rac-1 (Homo sapiens, UniProt P63000).
T1 construct: made in house
The assay can be described thus: Ras GTP Binding Domain Inhibition Assay (Ras Superfamily Assay). The note with it: read-out: Rac-1: % inh. Put shortly:
(§1)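 Binding of 100 nM fluorescent GTP (Cy3 or Cy5, 45 min, room temperature) was read after washes from plate-captured His-tagged protein. Beforehand, compounds at 20 μM or in dilution series for IC50 sat 3 h on the protein in Tris buffer pH 7.4 or 7.0 with 1% DMSO, Sos GEF optionally added for the last hour.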

In assay [3] the test system is KRas G12D mutant. Described as above. To be noted: at 20 μM; for KRas G12D mutant + SOS: % inh.: with SOS; for KRas G12D mutant: % inh.: without SOS. Put shortly:
as §1

The test system of assay [4] is KRas wild type. The description is as above. To be noted: at 20 μM; for KRas wild type + SOS: % inh.: with SOS; for KRas wild type: % inh.: without SOS. The method in brief:
as §1

As for `Cc1[nH]nc(Nc2nc(-c3nccn3C)nn3cc(-c4ccn(C)n4)c(C)c23)c1C` [Compound 267, N-(4,5-Dimethyl-1H-pyrazol-3-yl)-5-methyl-2-(1-methyl-1H-imidazol-2-yl)-6-(1-methyl-1H-pyrazol-3-yl)pyrrolo[2,1-f][1,2,4]triazin-4-amine], the “% inh of Akt phosphorylation in Panc-1” value in assay [1] is “D* (85-100% activation)”. The inhibition at 20 µM in assay [2] fell in the range of 76 to 100%. In assay [3], the “KRas G12D mutant + SOS: % inh.” value is given as “D (D = 76-100% inhibition)” and the “KRas G12D mutant: % inh.” value is given as “D (D = 76-100% inhibition)”. Besides, in assay [4], the “KRas wild type + SOS: % inh.” value is on record as “D (D = 76-100% inhibition)” and the “KRas wild type: % inh.” value is reported as “D (D = 76-100% inhibition)”.
Turning to `Cc1c(-c2ccn(C)n2)cn2nc(-c3nccn3C)nc(Nc3cc(C(C)C)[nH]n3)c12` [Compound 268, N-(5-Isopropyl-1H-pyrazol-3-yl)-5-methyl-2-(1-methyl-1H-imidazol-2-yl)-6-(1-methyl-1H-pyrazol-3-yl)pyrrolo[2,1-f][1,2,4]triazin-4-amine], in assay [1], the “% inh of Akt phosphorylation in Panc-1” value was “D* (85-100% activation)”. In assay [2], the inhibition at 20 µM lay in the range of 76 to 100%. Moreover, in assay [3], the “KRas G12D mutant + SOS: % inh.” value is given as “D (D = 76-100% inhibition)” and the “KRas G12D mutant: % inh.” value is given as “C (C = 50-75% inhibition)”. In assay [4], the “KRas wild type + SOS: % inh.” value is given as “D (D = 76-100% inhibition)” and the “KRas wild type: % inh.” value is “C (C = 50-75% inhibition)”.
For `Cc1c(-c2ccn(C)n2)cn2nc(-c3nccn3C)nc(Nc3cc(-c4ccccc4)[nH]n3)c12` [Compound 263, 5-Methyl-2-(1-methyl-1H-imidazol-2-yl)-6-(1-methyl-1H-pyrazol-3-yl)-N-(5-phenyl-1H-pyrazol-3-yl)pyrrolo[2,1-f][1,2,4]triazin-4-amine], the “% inh of Akt phosphorylation in Panc-1” value in assay [1] was “D* (85-100% activation)”. Further, the inhibition at 20 µM in assay [2] lay in the range of 76 to 100%. In addition, in assay [3], the “KRas G12D mutant + SOS: % inh.” value is listed as “D (D = 76-100% inhibition)” and the “KRas G12D mutant: % inh.” value is “D (D = 76-100% inhibition)”. Besides, in assay [4], the “KRas wild type + SOS: % inh.” value was “D (D = 76-100% inhibition)” and the “KRas wild type: % inh.” value is “C (C = 50-75% inhibition)”.
With `COc1cc(Nc2nc(-c3nccn3C)nn3cc(-c4ccn(C)n4)c(C)c23)nn1C` [Compound 253, N-(5-Methoxy-1-methyl-1H-pyrazol-3-yl)-5-methyl-2-(1-methyl-1H-imidazol-2-yl)-6-(1-methyl-1H-pyrazol-3-yl)pyrrolo[2,1-f][1,2,4]triazin-4-amine], the “% inh of Akt phosphorylation in Panc-1” value in assay [1] is “D* (85-100% activation)”. Moreover, in assay [2], the inhibition at 20 µM fell in the range of 76 to 100%. Moreover, in assay [3], the “KRas G12D mutant + SOS: % inh.” value is listed as “D (D = 76-100% inhibition)” and the “KRas G12D mutant: % inh.” value was “C (C = 50-75% inhibition)”. Moreover, in assay [4], the “KRas wild type + SOS: % inh.” value is “D (D = 76-100% inhibition)” and the “KRas wild type: % inh.” value was “D (D = 76-100% inhibition)”.
`COc1ccc(F)c(-c2cn3nc(-c4nccn4C)nc(N[C@H]4C[C@H](OC)C4)c3c2-c2ccccc2)c1F` [Compound 273, 6-(2,6-Difluoro-3-methoxyphenyl)-N-((1r,3r)-3-methoxycyclobutyl)-2-(1-methyl-1H-imidazol-2-yl)-5-phenylpyrrolo[2,1-f][1,2,4]triazin-4-amine]: in assay [1], the “% inh of Akt phosphorylation in Panc-1” value is reported as “D (85-100% inhibition)”. Besides, the inhibition at 20 µM in assay [2] lay within 1 to 25%. In assay [3], the “KRas G12D mutant + SOS: % inh.” value is “A (A = 1-25% inhibition)” and the “KRas G12D mutant: % inh.” value is listed as “B (B = 26-49% inhibition)”. For the same compound, in assay [4], the “KRas wild type + SOS: % inh.” value is on record as “A (A = 1-25% inhibition)” and the “KRas wild type: % inh.” value is given as 0 (0 = 0% inhibition).
`COc1ccnc(Nc2nc(-c3nccn3C)nn3cc(-c4ccn(C)n4)c(C4CC4)c23)c1` [Compound 276, 5-Cyclopropyl-N-(4-methoxypyridin-2-yl)-2-(1-methyl-1H-imidazol-2-yl)-6-(1-methyl-1H-pyrazol-3-yl)pyrrolo[2,1-f][1,2,4]triazin-4-amine]: the “% inh of Akt phosphorylation in Panc-1” value in assay [1] is recorded as “D* (85-100% activation)”. Moreover, in assay [2], the inhibition at 20 µM fell in the range of 76 to 100%. Besides, in assay [3], the “KRas G12D mutant + SOS: % inh.” value was “D (D = 76-100% inhibition)” and the “KRas G12D mutant: % inh.” value is “D (D = 76-100% inhibition)”. Moreover, in assay [4], the “KRas wild type + SOS: % inh.” value is on record as “D (D = 76-100% inhibition)” and the “KRas wild type: % inh.” value is “D (D = 76-100% inhibition)”.
Consider `Cc1c(-c2ccn(C)n2)cn2nc(-c3nccn3C)nc(Nc3cc(-c4ccncc4)[nH]n3)c12` [Compound 266, 5-Methyl-2-(1-methyl-1H-imidazol-2-yl)-6-(1-methyl-1H-pyrazol-3-yl)-N-(5-(pyridin-4-yl)-1H-pyrazol-3-yl)pyrrolo[2,1-f][1,2,4]triazin-4-amine], for which, in assay [1], the “% inh of Akt phosphorylation in Panc-1” value is “D* (85-100% activation)”. Besides, the inhibition at 20 µM in assay [2] is 76 to 100%. In addition, in assay [3], the “KRas G12D mutant + SOS: % inh.” value is reported as “D (D = 76-100% inhibition)” and the “KRas G12D mutant: % inh.” value is “D (D = 76-100% inhibition)”. In addition, in assay [4], the “KRas wild type + SOS: % inh.” value is “C (C = 50-75% inhibition)” and the “KRas wild type: % inh.” value was “D (D = 76-100% inhibition)”.
Turning to `Cc1c(-c2ccn(C)n2)cn2nc(-c3nccn3C)nc(Nc3ccc(-c4ccccn4)cn3)c12` [Compound 249, N-([2,3′-Bipyridin]-6′-yl)-5-methyl-2-(1-methyl-1H-imidazol-2-yl)-6-(1-methyl-1H-pyrazol-3-yl)pyrrolo[2,1-f][1,2,4]triazin-4-amine], the “% inh of Akt phosphorylation in Panc-1” value in assay [1] is reported as “D* (85-100% activation)”. In addition, the inhibition at 20 µM in assay [2] lay within 76 to 100%. Besides, in assay [3], the “KRas G12D mutant + SOS: % inh.” value is “C (C = 50-75% inhibition)” and the “KRas G12D mutant: % inh.” value is reported as “C (C = 50-75% inhibition)”. Moreover, in assay [4], the “KRas wild type + SOS: % inh.” value is on record as “C (C = 50-75% inhibition)” and the “KRas wild type: % inh.” value is listed as “C (C = 50-75% inhibition)”.
For the compound `Cc1c(-c2ccn(C)n2)cn2nc(-c3nccn3C)nc(Nc3cc(-c4cccnc4)[nH]n3)c12` [Compound 264, 5-Methyl-2-(1-methyl-1H-imidazol-2-yl)-6-(1-methyl-1H-pyrazol-3-yl)-N-(5-(pyridin-3-yl)-1H-pyrazol-3-yl)pyrrolo[2,1-f][1,2,4]triazin-4-amine], the “% inh of Akt phosphorylation in Panc-1” value in assay [1] was “D* (85-100% activation)”. In addition, the inhibition at 20 µM in assay [2] was in the range of 76 to 100%. Also, in assay [3], the “KRas G12D mutant + SOS: % inh.” value was “D (D = 76-100% inhibition)” and the “KRas G12D mutant: % inh.” value is given as “C (C = 50-75% inhibition)”. In addition, in assay [4], the “KRas wild type + SOS: % inh.” value is “D (D = 76-100% inhibition)” and the “KRas wild type: % inh.” value is on record as “C (C = 50-75% inhibition)”.
With `COc1cccc(-c2cn3nc(-c4nccn4C)nc(N[C@@H]4CC[C@H]4OC)c3c2-c2ccccc2)c1C` (racemic) [Compound 272, rac 6-(3-Methoxy-2-methylphenyl)-N-((1R,2R)-2-methoxycyclobutyl)-2-(1-methyl-1H-imidazol-2-yl)-5-phenylpyrrolo[2,1-f][1,2,4]triazin-4-amine], the “% inh of Akt phosphorylation in Panc-1” value in assay [1] is on record as “D (85-100% inhibition)”. For the same compound, the inhibition at 20 µM in assay [2] lay within 1 to 25%. Moreover, in assay [3], the “KRas G12D mutant + SOS: % inh.” value is listed as “A (A = 1-25% inhibition)” and the “KRas G12D mutant: % inh.” value is “C (C = 50-75% inhibition)”. In addition, in assay [4], the “KRas wild type + SOS: % inh.” value is given as 0 (0 = 0% inhibition) and the “KRas wild type: % inh.” value is on record as 0 (0 = 0% inhibition).

The record behind these values is US12459951B2, “Compounds that interact with RAS superfamily proteins for treatment of cancers, inflammatory diseases, rasopathies, and fibrotic disease” (SHY Therapeutics, LLC, priority 2022, dated 2025).
